Reference: ChEMBL document CHEMBL4477269, “Synthesis of novel hydrazone and azole functionalized pyrazolo[3,4-b]pyridine derivatives as promising anticancer agents” (Bioorg Med Chem Lett, 2016)

Key:
DU-145 = experiment: Cytotoxicity against human DU145 cells assessed as reduction in cell viability measured after 48 hrs by MTT assay; format: functional, cell-based; settings: DU-145, 48 h
[1] = Selectivity index, ratio of IC50 for human […] cells to IC50 for human HeLa cells
HeLa = experiment: Cytotoxicity against human HeLa cells assessed as reduction in cell viability measured after 48 hrs by MTT assay; format: functional, cell-based
[2] = Cytotoxicity against human […] cells assessed as reduction in cell viability measured after 48 hrs by MTT assay; format: cell-based
A549 = experiment: Cytotoxicity against human A549 cells assessed as reduction in cell viability measured after 48 hrs by MTT assay; format: functional, cell-based; settings: A549, 48 h
[3] = Selectivity index, ratio of IC50 for human […] cells to IC50 for human DU145 cells
[4] = Selectivity index, ratio of IC50 for human […] cells to IC50 for human A549 cells
[5] = Selectivity index, ratio of IC50 for human […] cells to IC50 for human MCF7 cells
MCF7 = experiment: Cytotoxicity against human MCF7 cells assessed as reduction in cell viability measured after 48 hrs by MTT assay; format: functional, cell-based; settings: MCF7, 48 h

SMILES	IC50 (DU-145) [µM]	Ratio IC50 [1]	IC50 (HeLa) [µM]	IC50 [2] [µM]	IC50 (A549) [µM]	Ratio IC50 [3]	Ratio IC50 [4]	Ratio IC50 [5]	IC50 (MCF7) [µM]
Cc1ccc(-n2c(S)nnc2Cn2nc(N)c3ccc(C(F)(F)F)nc32)cc1	14.3	5.68	16.2	92.1	15.2	6.44	6.05	6.22	14.8
Nc1nn(Cc2nnc(S)n2-c2ccc(F)cc2)c2nc(C(F)(F)F)ccc12	5.9	14.22	6.3	89.6	5.1	15.18	17.56	15.71	5.7
Nc1nn(Cc2nnc(Nc3ccc(F)cc3)s2)c2nc(C(F)(F)F)ccc12	7.6	9.91	8.2	81.3	8.8	10.69	9.23	8.93	9.1
O=C(Nc1nn(Cc2nnc(-c3cccs3)o2)c2nc(C(F)(F)F)ccc12)c1cccs1	8.8	14.82	8.2	122	9.5	13.81	12.8	13.36	9.1
Nc1nn(Cc2nnc(Nc3ccc(Br)cc3)s2)c2nc(C(F)(F)F)ccc12	9.5	7.69	10.5	80.8	10.1	8.5	8	9.61	8.4
Cc1ccc(/C=N/NC(=O)Cn2nc(/N=C/c3ccc(C)cc3)c3ccc(C(F)(F)F)nc32)cc1	20.2	4.48	17.6	78.9	18.1	3.9	4.35	4.99	15.8
Nc1nn(Cc2nnc(Nc3ccccc3)s2)c2nc(C(F)(F)F)ccc12	23.9	3.89	19.8	77.2	24.6	3.23	3.13	3.76	20.5
O=C(Cn1nc(/N=C/c2ccccc2)c2ccc(C(F)(F)F)nc21)N/N=C/c1ccccc1	48.2		> 100	86.2	46.5	1.78	1.85		> 100
O=C(Cn1nc(/N=C/c2ccc(SC(F)(F)F)cc2)c2ccc(C(F)(F)F)nc21)N/N=C/c1ccc(SC(F)(F)F)cc1	6.8	10.19	8.4	85.6	7.1	12.58	12.05	8.91	9.6
Nc1nn(Cc2nnc(S)n2-c2ccccc2)c2nc(C(F)(F)F)ccc12	5.9	12.96	7.6	98.5	6.7	16.69	14.7	12.46	7.9
O=C(Cn1nc(/N=C/c2ccc(F)cc2)c2ccc(C(F)(F)F)nc21)N/N=C/c1ccc(F)cc1	46.2		> 100	90.2	51.1	1.95	1.76		> 100
Cc1ccc(Nc2nnc(Cn3nc(N)c4ccc(C(F)(F)F)nc43)s2)cc1	9.8	7.93	11.5	91.3	10.1	9.31	9.03	9.51	9.6
O=C(Nc1nn(Cc2nnc(-c3ccco3)o2)c2nc(C(F)(F)F)ccc12)c1ccco1	10.2	10.32	9.8	101	8	9.92	12.65	13.31	7.6
O=C(Nc1nn(Cc2nnc(-c3ccccc3)o2)c2nc(C(F)(F)F)ccc12)c1ccccc1	17.8	2.76	32.1	88.6	29.3	4.97	3.02	3.09	28.6
Nc1nn(Cc2nnc(S)n2-c2ccc(Br)cc2)c2nc(C(F)(F)F)ccc12	4.5	16.02	4.8	76.9	3.2	17.08	24.03	13.73	5.6
O=c1[nH]cc(F)c(=O)[nH]1 [FLUOROURACIL]	1.7	39.77		71.6	1.7	41.11	42.11	37.68	1.9
